According to US8338465B2, “Cyclic carboxylic acid rhodanine derivatives for the treatment and prevention of tuberculosis” (priority 2006, dated 2012):
Read-outs that look alike come from different tables or passages of the source.

Molecular target: T1, dihydrolipoamide acyltransferase (DlaT) (Mycobacterium tuberculosis, UniProt P9WIS7)
T1 sequence (P9WIS7 1-553): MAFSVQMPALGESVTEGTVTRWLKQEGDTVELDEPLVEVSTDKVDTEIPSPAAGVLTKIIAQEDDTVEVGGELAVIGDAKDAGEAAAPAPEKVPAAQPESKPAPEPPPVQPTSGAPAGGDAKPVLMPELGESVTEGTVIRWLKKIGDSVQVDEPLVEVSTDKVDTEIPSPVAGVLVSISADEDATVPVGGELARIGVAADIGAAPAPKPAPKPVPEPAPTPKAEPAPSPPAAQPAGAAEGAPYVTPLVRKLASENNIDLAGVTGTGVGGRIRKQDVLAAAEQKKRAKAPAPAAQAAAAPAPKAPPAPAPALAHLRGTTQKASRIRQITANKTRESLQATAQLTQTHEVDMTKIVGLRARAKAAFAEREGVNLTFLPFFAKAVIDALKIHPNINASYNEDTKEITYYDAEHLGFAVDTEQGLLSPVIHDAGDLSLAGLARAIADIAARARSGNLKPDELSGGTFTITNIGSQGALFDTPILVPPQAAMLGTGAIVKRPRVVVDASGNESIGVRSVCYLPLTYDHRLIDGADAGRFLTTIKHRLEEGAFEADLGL
Experiment: DlaT inhibition (Dlat IC50); DTNB peroxidase assay with Lpd, DlaT and AhpD
Type: biochemical

[1] = Table 1, Compounds A1 to A294, read-out: Dlat IC50 category

CC(C)Oc1ccc(-c2ccc(C=C3SC(=S)N(C4CCCC(C(=O)O)C4)C3=O)o2)cc1 (stereo not shown) [Compound C66, 3-{5-[5-(4-Isopropoxy-phenyl)-furan-2-ylmethylene]-4-oxo-2-thioxo-thiazolidin-3-yl}-cyclohexanecarboxylic acid]
IC50 (Dlat IC50 category): < 10 µM

O=C(O)C(c1ccccc1)N1C(=O)C(=Cc2ccc(-c3ccc(Cl)cc3)o2)SC1=S (stereo not shown) [Compound B9]
IC50 (Dlat IC50 category): < 10 µM

O=C(O)CCCCCN1C(=O)C(=Cc2ccc(-c3cccc(Cl)c3)o2)SC1=S [Compound B12]
IC50 (Dlat IC50 category): < 10 µM

Cc1cc(C)c(-c2ccc(C=C3SC(=S)N(C4CCCC(C(=O)O)C4)C3=O)o2)c(C)c1 (stereo not shown) [Compound C28, 3-{4-Oxo-2-thioxo-5-[5-(2,4,6-trimethyl-phenyl)-furan-2-ylmethylene]-thiazolidin-3-yl}-cyclohexanecarboxylic acid]
IC50 (Dlat IC50 category): < 10 µM

O=C(O)c1cc(N2C(=O)C(=Cc3ccc(-c4ccccc4F)o3)SC2=S)ccc1F [Compound A256]
IC50 [1]: 11 to 40 µM

CCCc1ccc(-c2ccc(C=C3SC(=S)N(C4CCCC(C(=O)O)C4)C3=O)o2)cc1 (stereo not shown) [Compound C79, 3-{5-[1-[5-(4-propyl-phenyl)-furan-2-yl]-methylidene]-4-oxo-2-thioxo-thiazolidin-3-yl}-cyclohexanecarboxylic acid]
IC50 (Dlat IC50 category): 11 to 40 µM

O=C(O)CCCN1C(=O)C(=Cc2ccc(-c3ccccc3Cl)o2)SC1=S [Compound B90]
IC50 (Dlat IC50 category): < 10 µM

NS(=O)(=O)c1ccc(N2C(=O)C(=Cc3ccc(-c4cccc(C(F)(F)F)c4)o3)SC2=S)cc1 [Compound A18]
IC50 [1]: 11 to 40 µM

COc1ccc(-c2ccc(C=C3SC(=S)N(c4cccc(C(=O)O)c4)C3=O)o2)cc1 [Compound A152]
IC50 [1]: 11 to 40 µM

NS(=O)(=O)c1ccc(N2C(=O)C(=Cc3ccc(-c4ccc(C(=O)O)cc4)o3)SC2=S)cc1 [Compound A294]
IC50 [1]: < 10 µM

O=C1C(=Cc2ccc(-c3ccccc3Cl)o2)SC(=S)N1C1CCC(O)CC1 (stereo not shown) [Compound C21, 5-[1-[5-(2-chloro-phenyl)-furan-2-yl]-methylidene]-3-(4-hydroxy-cyclohexyl)-2-thioxo-thiazolidin-4-one]
IC50 (Dlat IC50 category): 11 to 40 µM

O=C(O)C(c1ccccc1)N1C(=O)C(=Cc2ccc(-c3ccc(Cl)c(Cl)c3)o2)SC1=S (stereo not shown) [Compound B10]
IC50 (Dlat IC50 category): < 10 µM

CN(C)c1ccc(-c2ccc(C=C3SC(=S)N(CC(=O)O)C3=O)o2)cc1 [Compound B86]
IC50 (Dlat IC50 category): 41 to 80 µM

COc1ccc(-c2ccc(C=C3SC(=S)N(C(C(=O)O)C(C)C)C3=O)o2)cc1Cl (stereo not shown) [Compound B109]
IC50 (Dlat IC50 category): < 10 µM

CN(C)c1ccc(N2C(=O)C(=Cc3ccc(-c4ccccc4Cl)o3)SC2=S)cc1C(=O)O [Compound A274]
IC50 [1]: 11 to 40 µM

O=C(O)c1cccc(N2C(=O)C(=Cc3ccc(-c4ccc(O)cc4Cl)o3)SC2=S)c1 [Compound A124]
IC50 [1]: < 10 µM

O=C(O)c1cccc(N2C(=O)C(=Cc3ccc(-c4cccc(C(F)(F)F)c4)o3)SC2=S)c1 [Compound A2]
IC50 [1]: < 10 µM

O=C(O)c1cccc(N2C(=O)C(=Cc3ccc(-c4cccc(CO)c4)o3)SC2=S)c1 [Compound A209]
IC50 [1]: < 10 µM

Cc1ccc(-c2ccc(C=C3SC(=S)N(Nc4ccccc4C(=O)O)C3=O)cc2)cc1 [Compound D56, 2-{5-[1-(4′-methyl-biphenyl-4-yl)-methylidene]-4-oxo-2-thioxo-thiazolidin-3-ylamino}-benzoic acid]
IC50 (Dlat IC50 category): 11 to 40 µM

Cc1cccc(C)c1-c1ccc(C=C2SC(=S)N(Nc3ccccc3C(=O)O)C2=O)o1 [Compound D24, 2-{5-[5-(2,6-Dimethyl-phenyl)-furan-2-ylmethylene]-4-oxo-2-thioxo-thiazolidin-3-ylamino}-benzoic acid]
IC50 (Dlat IC50 category): < 10 µM

CSc1ccccc1-c1ccc(C=C2SC(=S)N(Nc3ccccc3C(=O)O)C2=O)o1 [Compound D30, 2-{5-[1-[5-(2-methylsulfanyl-phenyl)-furan-2-yl]-methylidene]-4-oxo-2-thioxo-thiazolidin-3-ylamino}-benzoic acid]
IC50 (Dlat IC50 category): < 10 µM

O=C(O)C(c1ccccc1)N1C(=O)C(=Cc2ccc(-c3c(Cl)cccc3Cl)o2)SC1=S (stereo not shown) [Compound B48]
IC50 (Dlat IC50 category): < 10 µM

CS(=O)(=O)c1ccc(-c2ccc(C=C3SC(=S)N(C4CCCC(C(=O)O)C4)C3=O)o2)cc1 (stereo not shown) [Compound C58, 3-{5-[5-(4-Methanesulfonyl-phenyl)-furan-2-ylmethylene]-4-oxo-2-thioxo-thiazolidin-3-yl}-cyclohexanecarboxylic acid]
IC50 (Dlat IC50 category): < 10 µM

COc1ccc(-c2ccc(C=C3SC(=S)N(C4CCCC(C(=O)O)C4)C3=O)o2)c(C)c1 (stereo not shown) [Compound C9, 3-{5-[1-[5-(2-methyl-4-methoxy-phenyl)-furan-2-yl]-methylidene]-4-oxo-2-thioxo-thiazolidin-3-yl}-cyclohexanecarboxylic acid]
IC50 (Dlat IC50 category): 11 to 40 µM

O=C(O)C(Cc1ccc(O)c(O)c1)N1C(=O)C(=Cc2ccc(-c3ccc(Cl)cc3)o2)SC1=S (stereo not shown) [Compound B56]
IC50 (Dlat IC50 category): 11 to 40 µM

O=C(O)CN1C(=O)C(=Cc2ccc(-c3ccc(-c4ccccc4)cc3)o2)SC1=S [Compound B16]
IC50 (Dlat IC50 category): < 10 µM

O=C(O)c1cccc(N2C(=O)C(=Cc3ccc(-c4ccc(Cl)cc4Cl)o3)SC2=S)c1 [Compound A35]
IC50 [1]: 11 to 40 µM

O=C(O)c1cccc(CCN2C(=O)C(=Cc3ccc(-c4cccc(C(F)(F)F)c4)o3)SC2=S)c1 [Compound G2]
IC50 (Dlat IC50 category, Table 7, Compounds G1 to G4): < 10 µM

O=C(O)CCCCCN1C(=O)C(=Cc2ncc(-c3cccc(Cl)c3)o2)SC1=S [Compound B34]
IC50 (Dlat IC50 category): 11 to 40 µM

O=C(O)c1cc(N2C(=O)C(=Cc3ccc(-c4ccccc4-c4ccccc4)o3)SC2=S)ccc1F [Compound A284]
IC50 [1]: < 10 µM

Cc1ccc(C(=O)O)cc1N1C(=O)C(=Cc2ccc(-c3ccc(C(C)(C)c4ccccc4)cc3)o2)SC1=S [Compound A102]
IC50 [1]: < 10 µM

C=C(c1ccccc1)c1ccc(-c2ccc(C=C3SC(=S)N(CC(=O)O)C3=O)o2)cc1 [Compound B82]
IC50 (Dlat IC50 category): < 10 µM

O=C(O)c1cccc(N2C(=O)C(=Cc3ccc(-c4cccc(Cl)c4)o3)SC2=S)c1 [Compound A4]
IC50 [1]: 11 to 40 µM

Cc1cc(F)ccc1-c1ccc(C=C2SC(=S)N(C3CCCC(C(=O)O)C3)C2=O)o1 (stereo not shown) [Compound C11, 3-{5-[1-[5-(2-methyl-4-fluoro-phenyl)-furan-2-yl]-methylidene]-4-oxo-2-thioxo-thiazolidin-3-yl}-cyclohexanecarboxylic acid]
IC50 (Dlat IC50 category): < 10 µM

Cc1ccc(-c2cccc(C=C3SC(=S)N(C4CCC(C(=O)O)CC4)C3=O)c2)cc1 (stereo not shown) [Compound C69, 4-{5-[1-(4′-methyl-biphenyl-3-yl)-methylidene]-4-oxo-2-thioxo-thiazolidin-3-yl}-cyclohexanecarboxylic acid]
IC50 (Dlat IC50 category): < 10 µM

O=C(O)c1cccc(N2C(=O)C(=Cc3ccc(-c4cc(Cl)cc(Cl)c4)o3)SC2=S)c1 [Compound A121]
IC50 [1]: 11 to 40 µM

Cc1ccc(-c2ccc(C=C3SC(=S)N(c4cccc(C(=O)O)c4)C3=O)o2)c(F)c1 [Compound A150]
IC50 [1]: 11 to 40 µM

O=C(O)c1ccc(NN2C(=O)C(=Cc3ccc(-c4cccc(C(F)(F)F)c4)o3)SC2=S)cc1 [Compound D37, 4-{4-oxo-2-thioxo-5-[5-(3-trifluoromethyl-phenyl)-furan-2-ylmethylene]-thiazolidin-3-ylamino}-benzoic acid]
IC50 (Dlat IC50 category): < 10 µM

O=C(O)CCN1C(=O)C(=Cc2ccc(-c3ccc(-c4ccccc4)cc3)o2)SC1=S [Compound B17]
IC50 (Dlat IC50 category): 11 to 40 µM

O=C(O)c1cc(N2C(=O)C(=Cc3ccc(-c4ccccc4C(F)(F)F)o3)SC2=S)ccc1F [Compound A280]
IC50 [1]: 11 to 40 µM
